The test system of assay [1] is Mycobacterium tuberculosis H37Rv. Nature of the assay: Mycobacterium tuberculosis H37Rv Inhibition Assay (Whole Cell Assay). As to conditions: ATCC 25618 / H37Rv, H37Rv strain (ATCC25618), Middlebrook 7H9, six days at 37° C., resazurin fluorescence after 48 hours. In kind it is cell-based. For orientation: Resazurin is reduced to fluorescent resorufin, in cell work by metabolically active cells.

The target of assay [2] is T1, Mycobacterium tuberculosis InhA (Mycobacterium tuberculosis, UniProt P9WGR1).
T1 construct: made in house; host or cells: E. coli
Nature of the assay: Mycobacterium tuberculosis InhA Inhibition Assay (Enzyme Assay). In kind it is biochemical. The settings on record: 5 nM InhA, 50 μM DDCoA, 50 μM NADH, PIPES buffer pH 6.8, initial velocities of NADH consumption. On the procedure:
Mycobacterium tuberculosis InhA Inhibition Assay (Enzyme Assay)
InhA is able to reduce 2-trans enoyl-CoA esters with concomitant oxidation of NADH to NAD^+. The assay format is based on the kinetic detection of NADH consumption.
Assay for InhA inhibition is carried out with mycobacterium recombinant protein expressed and purified form E. coli. Standard assay conditions for the determination of kinetic constants and inhibitors activity use 5 nM of InhA, 50 μM of Dodecenoyl-CoA synthesized and purified as described by Quernard et al (DDCoA) and 50 μM of NADH as substrates, and it is carried out in 30 mM PIPES buffer pH 6.8, containing 0.05% of BSA. […] Triclosan is used as positive control in every experiment. One μl of compounds is added to the wells containing 25 μl of the DDCoA+NADH mix, the reaction is started by adding 50 μl of the enzyme solution. Fluorescence from NADH is followed at room temperature during 20 minutes in a fluorescent plate reader (excitation at 340 nm; emission at 480 nm). IC50 values are determined using initial velocities of NADH consumption.
Quernard A, Sacchettini J C, Dessen A, et al. Enzymatic characterization of the target for isoniazid in Mycobacterium tuberculosis. Biochemistry 1995; 34:8235-41.

Converted amounts (≈) assume the structure as drawn. “And” between values parts separate entries of the source, which are not always exact repeats. Identical values can stand only once. Like-named read-outs stand apart in the source and are kept apart here.

The values below come from patent publication US8524750B2, “(Pyrazol-3-yl)-1,3,4-thiadiazol-2-amine and (pyrazol-3-yl)-1,3,4-thiazol-2-amine compounds” (Glaxo Group Limited, priority 2009, dated 2013).

T1 sequence (P9WGR1 whole entry, looked up): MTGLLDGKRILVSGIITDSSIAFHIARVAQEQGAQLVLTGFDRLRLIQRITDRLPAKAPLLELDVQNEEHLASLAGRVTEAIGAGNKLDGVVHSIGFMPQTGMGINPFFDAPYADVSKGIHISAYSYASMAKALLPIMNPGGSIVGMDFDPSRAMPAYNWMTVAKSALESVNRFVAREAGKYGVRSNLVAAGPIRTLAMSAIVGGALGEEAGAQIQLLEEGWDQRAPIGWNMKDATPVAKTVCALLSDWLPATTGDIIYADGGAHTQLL

The term MIC denotes the smallest concentration in the dilution series that meets the test's criterion for growth inhibition. Low readings indicate greater potency, high ones weaker potency. In general, IC50 refers to the point on the concentration scale where inhibition reaches its midpoint. `Cc1cc(C)n(C(C)c2nnc(Nc3ccn(Cc4c(F)cccc4Cl)n3)s2)n1` (racemic) [Example 28, N-{1-[(2-chloro-6-fluorophenyl)methyl]-1H-pyrazol-3-yl}-5-[1-(3,5-dimethyl-1H-pyrazol-1-yl)ethyl]-1,3,4-thiadiazol-2-amine] registered an MIC in assay [1] of at most 1 µM. Besides, the IC50 in assay [2] (read-out: IC50 value) was below 116 nM.

Regarding `Cc1csc(C(C)(O)c2nnc(Nc3ccn(Cc4c(F)cccc4Cl)n3)s2)n1` (racemic) [Example 30, 1-[5-({1-[(2-chloro-6-fluorophenyl)methyl]-1H-pyrazol-3-yl}amino)-1,3,4-thiadiazol-2-yl]-1-(4-methyl-1,3-thiazol-2-yl)ethanol], the MIC in assay [1] is at most 1 µM. Further, in assay [2] (read-out: IC50 value), the half-maximal inhibitory concentration (IC50) is below 111 nM.

For the compound `Cc1ccn(C(C)c2nnc(Nc3ccn(Cc4c(F)cccc4Cl)n3)s2)n1` (racemic) [Example 38, N-{1-[(2-chloro-6-fluorophenyl)methyl]-1H-pyrazol-3-yl}-5-[1-(3-methyl-1H-pyrazol-1-yl)ethyl]-1,3,4-thiadiazol-2-amine], the MIC in assay [1] was at most 1 µM. The IC50 in assay [2] (read-out: IC50 value) is below 120 nM.

`Cc1csc(C(C)(O)c2nnc(Nc3ccn(Cc4c(F)cccc4F)n3)s2)n1` (racemic) [Example 78, 1-[5-({1-[(2,6-difluorophenyl)methyl]-1H-pyrazol-3-yl}amino)-1,3,4-thiadiazol-2-yl]-1-(4-methyl-1,3-thiazol-2-yl)ethanol]: the MIC in assay [1] was at most 1 µM. In addition, the IC50 in assay [2] (IC50 value) is below 115 nM.

As to `Cc1ccn([C@H](C)c2nnc(Nc3ccn(Cc4c(F)cccc4Cl)n3)s2)n1` (single isomer, unassigned) [Example 66], the MIC in assay [1] lay in the range of 1 to 4 µM (≈ 0.418 to 1.67 µg/mL). Moreover, the IC50 in assay [2] (read-out: IC50 value) was below 120 nM.

Compound `Cc1ccn([C@@H](C)c2nnc(Nc3ccn(Cc4c(F)cccc4Cl)n3)s2)n1` (single isomer, unassigned) [Example 67] had an MIC in assay [1] of 1 to 4 µM (≈ 0.418 to 1.67 µg/mL). In assay [2] (read-out: IC50 value), the IC50 is below 120 nM.

For the compound `Cc1cc(C)n([C@H](C)c2nnc(Nc3ccn(Cc4c(F)cccc4Cl)n3)s2)n1` (single isomer, unassigned) [Example 68], the MIC in assay [1] is above 10 µM. For the same compound, the IC50 in assay [2] (read-out: IC50 value) was below 116 nM.

In turn, `Cc1cc(C)n([C@@H](C)c2nnc(Nc3ccn(Cc4c(F)cccc4Cl)n3)s2)n1` (single isomer, unassigned) [Example 69] gave an MIC in assay [1] of 1 to 4 µM (≈ 0.432 to 1.73 µg/mL). For the same compound, the IC50 in assay [2] (read-out: IC50 value) is below 116 nM.

Compound `Cc1csc([C@](C)(O)c2nnc(Nc3ccn(Cc4c(F)cccc4Cl)n3)s2)n1` (single isomer, unassigned) [Example 70] displayed an MIC in assay [1] of at most 1 µM. For the same compound, the IC50 in assay [2] (read-out: IC50 value) is below 111 nM.

For `Cc1csc([C@@](C)(O)c2nnc(Nc3ccn(Cc4c(F)cccc4Cl)n3)s2)n1` (single isomer, unassigned) [Example 71], in assay [1], the MIC fell in the range of 1 to 4 µM (≈ 0.451 to 1.8 µg/mL). For the same compound, the IC50 in assay [2] (read-out: IC50 value) was below 111 nM.

For the compound `Cc1csc([C@](C)(O)c2nnc(Nc3ccn(Cc4c(F)cccc4F)n3)s2)n1` (single isomer, unassigned) [Example 89], the IC50 in assay [2] (IC50 value) is 4.6 nM and < 115 nM.

In assay [1], `Cc1csc([C@@](C)(O)c2nnc(Nc3ccn(Cc4c(F)cccc4F)n3)s2)n1` (single isomer, unassigned) [Example 90] had an MIC above 10 µM. This compound also showed an IC50 in assay [2] (IC50 value) of 115 to 230 nM.

`Cc1cc(C)n(C(C)c2nnc(Nc3ccn(Cc4ccccc4C(F)(F)F)n3)s2)n1` (centres unmarked) [Example 1, 5-[1-(3,5-dimethyl-1H-pyrazol-1-yl)ethyl]-N-(1-{[2-(trifluoromethyl)phenyl]methyl}-1H-pyrazol-3-yl)-1,3,4-thiadiazol-2-amine] registered an MIC in assay [1] of 4 to 10 µM (≈ 1.79 to 4.47 µg/mL). Besides, in assay [2] (read-out: IC50 value), the IC50 is below 112 nM.

For `Cc1cc(C)n(C(C)c2nnc(Nc3ccn(Cc4cc(Cl)ccc4Cl)n3)s2)n1` (centres unmarked) [Example 2, N-{1-[(2,5-dichlorophenyl)methyl]-1H-pyrazol-3-yl}-5-[1-(3,5-dimethyl-1H-pyrazol-1-yl)ethyl]-1,3,4-thiadiazol-2-amine], the MIC in assay [1] is above 10 µM. Further, in assay [2] (read-out: IC50 value), the IC50 was below 112 nM.

In turn, `Cc1cc(C)n(C(C)c2nnc(Nc3ccn(Cc4ccccc4Br)n3)s2)n1` (centres unmarked) [Example 3, N-{1-[(2-bromophenyl)methyl]-1H-pyrazol-3-yl}-5-[1-(3,5-dimethyl-1H-pyrazol-1-yl)ethyl]-1,3,4-thiadiazol-2-amine] returned an MIC in assay [1] of 1 to 4 µM (≈ 0.458 to 1.83 µg/mL). In addition, the IC50 in assay [2] (read-out: IC50 value) was below 109 nM.

In assay [1], `Cc1ccn(C(C)c2nnc(Nc3ccn(Cc4cc(Cl)ccc4Cl)n3)s2)n1` (centres unmarked) [Example 4, N-{1-[(2,5-dichlorophenyl)methyl]-1H-pyrazol-3-yl}-5-[1-(3-methyl-1H-pyrazol-1-yl)ethyl]-1,3,4-thiadiazol-2-amine] returned an MIC of 4 to 10 µM (≈ 1.74 to 4.34 µg/mL). For the same compound, the IC50 in assay [2] (read-out: IC50 value) was below 115 nM.

For the compound `Cc1ccn(C(C)c2nnc(Nc3ccn(Cc4ccccc4Br)n3)s2)n1` (centres unmarked) [Example 5, N-{1-[(2-bromophenyl)methyl]-1H-pyrazol-3-yl}-5-[1-(3-methyl-1H-pyrazol-1-yl)ethyl]-1,3,4-thiadiazol-2-amine], the MIC in assay [1] lay within 4 to 10 µM (≈ 1.78 to 4.44 µg/mL). Also, in assay [2] (read-out: IC50 value), the IC50 is below 113 nM.

In assay [1], `Cc1cc(C)n(C(C)c2nnc(Nc3ccn(Cc4ccccc4F)n3)s2)n1` (centres unmarked) [Example 6, 5-[1-(3,5-dimethyl-1H-pyrazol-1-yl)ethyl]-N-{1-[(2-fluorophenyl)methyl]-1H-pyrazol-3-yl}-1,3,4-thiadiazol-2-amine] returned an MIC of 1 to 4 µM (≈ 0.397 to 1.59 µg/mL). Besides, the IC50 in assay [2] (read-out: IC50 value) is below 126 nM.

As to `Cc1cc(C)n(C(C)c2nnc(Nc3ccn(Cc4cccc(Cl)c4F)n3)s2)n1` (centres unmarked) [Example 7, N-{1-[(3-chloro-2-fluorophenyl)methyl]-1H-pyrazol-3-yl}-5-[1-(3,5-dimethyl-1H-pyrazol-1-yl)ethyl]-1,3,4-thiadiazol-2-amine], the MIC in assay [1] is at most 1 µM. Moreover, in assay [2] (read-out: IC50 value), the IC50 is below 116 nM.

In the case of `Cc1cc(C)n(C(C)c2nnc(Nc3ccn(Cc4cc(C(F)(F)F)ccc4C(F)(F)F)n3)s2)n1` (centres unmarked) [Example 8, N-(1-{[2,5-bis(trifluoromethyl)phenyl]methyl}-1H-pyrazol-3-yl)-5-[1-(3,5-dimethyl-1H-pyrazol-1-yl)ethyl]-1,3,4-thiadiazol-2-amine], the MIC in assay [1] was above 10 µM. Moreover, the IC50 in assay [2] (read-out: IC50 value) is below 97 nM.

Take `Cc1cc(C)n(C(C)c2nnc(Nc3ccn(Cc4cc(F)ccc4C(F)(F)F)n3)s2)n1` (centres unmarked) [Example 9, 5-[1-(3,5-dimethyl-1H-pyrazol-1-yl)ethyl]-N-(1-{[5-fluoro-2-(trifluoromethyl)phenyl]methyl}-1H-pyrazol-3-yl)-1,3,4-thiadiazol-2-amine]: in assay [1], the MIC was above 10 µM. Besides, the IC50 in assay [2] (read-out: IC50 value) was below 107 nM.

On to `Cc1cc(C)n(C(C)c2nnc(Nc3ccn(Cc4cccc(F)c4F)n3)s2)n1` (centres unmarked) [Example 10, N-{1-[(2,3-difluorophenyl)methyl]-1H-pyrazol-3-yl}-5-[1-(3,5-dimethyl-1H-pyrazol-1-yl)ethyl]-1,3,4-thiadiazol-2-amine], for which the MIC in assay [1] was at most 1 µM. Besides, in assay [2] (read-out: IC50 value), the IC50 was below 120 nM.

Regarding `Cc1cc(C)n(C(C)c2nnc(Nc3ccn(Cc4cc(C(F)(F)F)ccc4Cl)n3)s2)n1` (centres unmarked) [Example 11, N-(1-{[2-chloro-5-(trifluoromethyl)phenyl]methyl}-1H-pyrazol-3-yl)-5-[1-(3,5-dimethyl-1H-pyrazol-1-yl)ethyl]-1,3,4-thiadiazol-2-amine], in assay [1], the MIC is above 10 µM. Further, in assay [2] (read-out: IC50 value), the IC50 was below 104 nM.

The compound `Cc1cc(C)n(C(C)c2nnc(Nc3ccn(Cc4c(F)cccc4F)n3)s2)n1` (centres unmarked) [Example 12, N-{1-[(2,6-difluorophenyl)methyl]-1H-pyrazol-3-yl}-5-[1-(3,5-dimethyl-1H-pyrazol-1-yl)ethyl]-1,3,4-thiadiazol-2-amine] gave a minimum inhibitory concentration (MIC) in assay [1] of at most 1 µM. The IC50 in assay [2] (read-out: IC50 value) was below 120 nM.

For the compound `Cc1ccn(C(C)c2nnc(Nc3ccn(Cc4cccc(C)c4F)n3)s2)n1` (centres unmarked) [Example 13, N-{1-[(2-fluoro-3-methylphenyl)methyl]-1H-pyrazol-3-yl}-5-[1-(3-methyl-1H-pyrazol-1-yl)ethyl]-1,3,4-thiadiazol-2-amine], the MIC in assay [1] was at most 1 µM. Besides, in assay [2] (read-out: IC50 value), the IC50 is below 126 nM.

On to `Cc1ccn(C(C)c2nnc(Nc3ccn(Cc4cccc(Cl)c4F)n3)s2)n1` (centres unmarked) [Example 14, N-{1-[(3-chloro-2-fluorophenyl)methyl]-1H-pyrazol-3-yl}-5-[1-(3-methyl-1H-pyrazol-1-yl)ethyl]-1,3,4-thiadiazol-2-amine], for which the MIC in assay [1] lay in the range of 1 to 4 µM (≈ 0.418 to 1.67 µg/mL). In addition, in assay [2] (read-out: IC50 value), the IC50 is below 120 nM.

As for `Cc1cc([N+](=O)[O-])nn1Cc1nnc(Nc2ccn(Cc3c(Cl)cccc3Cl)n2)s1` [Example 65, N-{1-[(2,6-dichlorophenyl)methyl]-1H-pyrazol-3-yl}-5-[1-(5-methyl-3-nitro-1H-pyrazol-1-yl)methyl]-1,3,4-thiadiazol-2-amine], the IC50 in assay [2] (read-out: IC50 value) is above 1070 nM.

For the compound `Cc1csc(C(C)(O)c2nnc(Nc3ccn(Cc4cccc(N)c4F)n3)s2)n1` (centres unmarked) [Example 88, 1-[5-({1-[(3-amino-2-fluorophenyl)methyl]-1H-pyrazol-3-yl}amino)-1,3,4-thiadiazol-2-yl]-1-(4-methyl-1,3-thiazol-2-yl)ethanol], in assay [2] (read-out: IC50 value), the IC50 is below 116 nM.
